Experimental data as given in PubChem BioAssay AID194 (DTP/NCI, 2004).
Results filed as inconclusive are left out.

Test system: BDF1 mice, B16 melanoma s.c., survival/tumor T/C
Assay: NCI In Vivo Anticancer Drug Screen. Data for tumor model B16 Melanoma (subcutaneous) in B6D2F1 (BDF1) mice
Experimental: The antitumor activity of compounds was measured in mice bearing transplantable tumors. Survival or tumor size were measured and the results are expressed as the measurement made in the treated group (T) divided by the measurement made in the vehicle treated control group (C). The tumor model used in this assay is B16 Melanoma (subcutaneous) in B6D2F1 (BDF1) mice

[1] = endpoint: median survival time, dose: 4.0 mg/kg/injection, schedule: Q01DX009 (ip), vehicle: saline, higher = longer survival
[2] = endpoint: median survival time, dose: 1.0 mg/kg/injection, schedule: Q01DX009 (ip), vehicle: saline, higher = longer survival

C[n+]1c2ccccc2c(Nc2ccc(NS(=O)(=O)CCCCN=C(N)N)cc2)c2ccc(N)cc21
T/C (endpoint: median survival time, dose: 1.5 mg/kg/injection, schedule: Q01DX009 (sc), vehicle: saline, higher = longer survival): 96 % of control
T/C (endpoint: median survival time, dose: 3.0 mg/kg/injection, schedule: Q01DX009 (sc), vehicle: saline, higher = longer survival): 112 % of control
T/C (endpoint: median survival time, dose: 6.0 mg/kg/injection, schedule: Q01DX009 (sc), vehicle: saline, higher = longer survival): 108 % of control

COC1C(C)OC(OC2CC(C)(O)Cc3cc4c(c(O)c32)C(=O)c2c(O)cc3c(c2C4=O)OC2OC3(C)C(O)C(N(C)C)C2O)C(OC)C1(C)OC (centres undefined)
T/C (endpoint: median survival time, dose: 2.5 mg/kg/injection, schedule: Q01DX009 (ip), vehicle: other, higher = longer survival): 90 % of control
T/C (endpoint: median survival time, dose: 625.0 micrograms/kg/injection, schedule: Q01DX009 (ip), vehicle: other, higher = longer survival): 113 % of control
T/C (endpoint: median survival time, dose: 1250.0 micrograms/kg/injection, schedule: Q01DX009 (ip), vehicle: other, higher = longer survival): 95 % of control
T/C (endpoint: median survival time, dose: 2500.0 micrograms/kg/injection, schedule: Q01DX009 (ip), vehicle: other, higher = longer survival): 122 % of control
T/C (endpoint: median survival time, dose: 5000.0 micrograms/kg/injection, schedule: Q01DX009 (ip), vehicle: other, higher = longer survival): 113 % of control

COC(=O)Nc1nc2ccc(C(=O)c3cccs3)cc2[nH]1
T/C (endpoint: median survival time, dose: 50.0 mg/kg/injection, schedule: Q04DX002 (iv), vehicle: other, higher = longer survival): 110 % of control
T/C (endpoint: median survival time, dose: 50.0 mg/kg/injection, schedule: Q05DX005 (ip), vehicle: other, higher = longer survival): 104 % of control
T/C (endpoint: median survival time, dose: 60.0 mg/kg/injection, schedule: Q05DX005 (ip), vehicle: other, higher = longer survival): 105 % of control
T/C (endpoint: median survival time, dose: 70.0 mg/kg/injection, schedule: Q05DX005 (ip), vehicle: other, higher = longer survival): 103 % of control

C[C@@H](CN1CC(=O)NC(=O)C1)N1CC(=O)NC(=O)C1
T/C (endpoint: median survival time, dose: 6.25 mg/kg/injection, schedule: Q04DX003 (ip), vehicle: saline, higher = longer survival): 91 % of control
T/C (endpoint: median survival time, dose: 12.5 mg/kg/injection, schedule: Q04DX003 (ip), vehicle: saline, higher = longer survival): 97 % of control
T/C (endpoint: median survival time, dose: 16.0 mg/kg/injection, schedule: Q01DX009 (ip), vehicle: Klucel (hydroxypropylcellulose) (HPC), higher = longer survival): 100 % of control
T/C (endpoint: median survival time, dose: 16.0 mg/kg/injection, schedule: Q01DX009 (ip), vehicle: water, higher = longer survival): 117 % of control
T/C (endpoint: median survival time, dose: 25.0 mg/kg/injection, schedule: Q04DX003 (ip), vehicle: saline, higher = longer survival): 107 % of control
T/C (endpoint: median survival time, dose: 32.0 mg/kg/injection, schedule: Q01DX009 (ip), vehicle: Klucel (hydroxypropylcellulose) (HPC), higher = longer survival): 110 % of control
T/C (endpoint: median survival time, dose: 64.0 mg/kg/injection, schedule: Q01DX009 (ip), vehicle: Klucel (hydroxypropylcellulose) (HPC), higher = longer survival): 168 % of control
T/C (endpoint: median survival time, dose: 100.0 mg/kg/injection, schedule: Q04DX003 (ip), vehicle: saline, higher = longer survival): 119 % of control
T/C (endpoint: median survival time, dose: 200.0 mg/kg/injection, schedule: Q04DX003 (ip), vehicle: saline, higher = longer survival): 115 % of control
T/C (endpoint: median survival time, dose: 400.0 mg/kg/injection, schedule: Q04DX003 (ip), vehicle: saline, higher = longer survival): 108 % of control
T/C (endpoint: median survival time, dose: 800.0 mg/kg/injection, schedule: Q04DX003 (ip), vehicle: saline, higher = longer survival): 119 % of control

COc1cccc2c1C(=O)c1c(O)c3c(c(O)c1C2=O)C[C@@](O)(/C(C)=N/NC(=O)c1ccccc1)C[C@@H]3OC1CC(N)C(O)C(C)O1 (some centres undefined)
T/C (endpoint: median survival time, dose: 3.0 mg/kg/injection, schedule: Q01DX009 (ip), vehicle: saline, higher = longer survival): 103 % of control
T/C [1]: 118 % of control
T/C (endpoint: median survival time, dose: 6.0 mg/kg/injection, schedule: Q01DX009 (ip), vehicle: saline, higher = longer survival): 121 % of control
T/C (endpoint: median survival time, dose: 15.0 mg/kg/injection, schedule: Q04DX003 (ip), vehicle: saline, higher = longer survival): 103 % of control
T/C (endpoint: median survival time, dose: 30.0 mg/kg/injection, schedule: Q01DX001 (ip), vehicle: saline, higher = longer survival): 93 % of control

O
T/C (endpoint: median survival time, dose: 50.0 mg/kg/injection, schedule: Q02DX009 (ip), vehicle: saline, higher = longer survival): 94 % of control
T/C (endpoint: median survival time, dose: 100.0 mg/kg/injection, schedule: Q02DX009 (ip), vehicle: saline, higher = longer survival): 101 % of control
T/C (endpoint: median survival time, dose: 200.0 mg/kg/injection, schedule: Q02DX009 (ip), vehicle: saline, higher = longer survival): 118 % of control
T/C (endpoint: median survival time, dose: 400.0 mg/kg/injection, schedule: Q02DX009 (ip), vehicle: saline, higher = longer survival): 98 % of control

COC1C(O)C(C)OC(OC2C(Oc3cccc4c(O)c5c(=O)oc6ccc(C)c7c(=O)oc(c34)c5c67)OC(C)C(O)C2O)C1O (centres undefined)
T/C (endpoint: median survival time, dose: 6.25 mg/kg/injection, schedule: Q01DX009 (ip), vehicle: other, higher = longer survival): 95 % of control
T/C (endpoint: median survival time, dose: 12.5 mg/kg/injection, schedule: Q01DX009 (ip), vehicle: other, higher = longer survival): 104 % of control
T/C (endpoint: median survival time, dose: 25.0 mg/kg/injection, schedule: Q01DX009 (ip), vehicle: other, higher = longer survival): 100 % of control
T/C (endpoint: median survival time, dose: 50.0 mg/kg/injection, schedule: Q01DX009 (ip), vehicle: other, higher = longer survival): 101 % of control

CC1(C)N=C(N)N=C(N)N1c1ccc(CCCCc2cccc(S(=O)(=O)F)c2)c(Cl)c1
T/C (endpoint: median survival time, dose: 12.0 mg/kg/injection, schedule: Q01DX009 (ip), vehicle: saline, higher = longer survival): 121 % of control
T/C (endpoint: median survival time, dose: 18.0 mg/kg/injection, schedule: Q01DX009 (ip), vehicle: saline, higher = longer survival): 98 % of control

O=C1CSC(=S)N1c1ccco1
T/C (endpoint: median survival time, dose: 50.0 mg/kg/injection, schedule: Q01DX009 (ip), vehicle: Klucel (hydroxypropylcellulose) (HPC), higher = longer survival): 111 % of control
T/C (endpoint: median survival time, dose: 400.0 mg/kg/injection, schedule: Q01DX009 (ip), vehicle: Klucel (hydroxypropylcellulose) (HPC), higher = longer survival): 118 % of control

Cn1c(CCCC(=O)O)nc2cc(N(CCCl)CCCl)ccc21
T/C (endpoint: median survival time, dose: 2.5 mg/kg/injection, schedule: Q01DX009 (ip), vehicle: saline, higher = longer survival): 120 % of control
T/C (endpoint: median survival time, dose: 5.0 mg/kg/injection, schedule: Q01DX009 (ip), vehicle: saline, higher = longer survival): 98 % of control
T/C (endpoint: median survival time, dose: 10.0 mg/kg/injection, schedule: Q01DX009 (ip), vehicle: saline, higher = longer survival): 96 % of control

CN(Cc1cnc2nc(N)nc(N)c2n1)c1c(Cl)cc(C(=O)NC(CCC(=O)O)C(=O)O)cc1Cl (centres undefined)
T/C (endpoint: median survival time, dose: 60.0 mg/kg/injection, schedule: Q01DX009 (ip), vehicle: sodium bicarbonate, higher = longer survival): 103 % of control
T/C (endpoint: median survival time, dose: 90.0 mg/kg/injection, schedule: Q01DX009 (ip), vehicle: sodium bicarbonate, higher = longer survival): 110 % of control
T/C (endpoint: median survival time, dose: 135.0 mg/kg/injection, schedule: Q01DX009 (ip), vehicle: sodium bicarbonate, higher = longer survival): 101 % of control
T/C (endpoint: median survival time, dose: 600.0 mg/kg/injection, schedule: Q04DX003 (ip), vehicle: sodium bicarbonate, higher = longer survival): 109 % of control
T/C (endpoint: median survival time, dose: 670.0 mg/kg/injection, schedule: Q01DX001 (ip), vehicle: sodium bicarbonate, higher = longer survival): 97 % of control
T/C (endpoint: median survival time, dose: 900.0 mg/kg/injection, schedule: Q04DX003 (ip), vehicle: sodium bicarbonate, higher = longer survival): 102 % of control
T/C (endpoint: median survival time, dose: 1000.0 mg/kg/injection, schedule: Q01DX001 (ip), vehicle: sodium bicarbonate, higher = longer survival): 102 % of control

CC(=O)Oc1ccccc1C(=O)O
T/C (endpoint: median survival time, dose: 32.0 mg/kg/injection, schedule: Q01DX009 (ip), vehicle: saline, higher = longer survival): 95 % of control
T/C (endpoint: median survival time, dose: 64.0 mg/kg/injection, schedule: Q01DX009 (ip), vehicle: saline, higher = longer survival): 88 % of control
T/C (endpoint: median survival time, dose: 256.0 mg/kg/injection, schedule: Q01DX009 (ip), vehicle: saline, higher = longer survival): 116 % of control

CCOC(=O)CNC(=O)CCCCSc1ncnc2nc[nH]c12
T/C (endpoint: median survival time, dose: 20.0 mg/kg/injection, schedule: Q01DX009 (ip), vehicle: Klucel (hydroxypropylcellulose) (HPC), higher = longer survival): 121 % of control
T/C (endpoint: median survival time, dose: 40.0 mg/kg/injection, schedule: Q01DX009 (ip), vehicle: Klucel (hydroxypropylcellulose) (HPC), higher = longer survival): 111 % of control
T/C (endpoint: median survival time, dose: 80.0 mg/kg/injection, schedule: Q01DX009 (ip), vehicle: Klucel (hydroxypropylcellulose) (HPC), higher = longer survival): 119 % of control
T/C (endpoint: median survival time, dose: 160.0 mg/kg/injection, schedule: Q01DX009 (ip), vehicle: Klucel (hydroxypropylcellulose) (HPC), higher = longer survival): 115 % of control
T/C (endpoint: median survival time, dose: 320.0 mg/kg/injection, schedule: Q01DX009 (ip), vehicle: Klucel (hydroxypropylcellulose) (HPC), higher = longer survival): 118 % of control
T/C (endpoint: median survival time, dose: 640.0 mg/kg/injection, schedule: Q01DX009 (ip), vehicle: Klucel (hydroxypropylcellulose) (HPC), higher = longer survival): 122 % of control

N[C@@H](Cc1ccc(N(CCCl)CCCl)cc1)C(=O)O
T/C [2]: 93 % of control
T/C (endpoint: median survival time, dose: 2.0 mg/kg/injection, schedule: Q01DX009 (ip), vehicle: saline, higher = longer survival): 150 % of control
T/C [1]: 123 % of control
T/C (endpoint: median tumor weight (est.), dose: 1.25 mg/kg/injection, schedule: Q01DX009 (ip), vehicle: Klucel (hydroxypropylcellulose) (HPC), higher = larger tumour): 63 % of control
T/C (endpoint: median tumor weight (est.), dose: 2.5 mg/kg/injection, schedule: Q01DX009 (ip), vehicle: Klucel (hydroxypropylcellulose) (HPC), higher = larger tumour): 44 % of control
T/C (endpoint: median tumor weight (est.), dose: 5.0 mg/kg/injection, schedule: Q01DX009 (ip), vehicle: Klucel (hydroxypropylcellulose) (HPC), higher = larger tumour): 18 % of control

COC(=O)C[C@](O)(CCC(C)(C)O)C(=O)O[C@@H]1C(OC)=C[C@]23CCCN2CCc2cc4c(cc2[C@H]13)OCO4
T/C (endpoint: median survival time, dose: 0.7 mg/kg/injection, schedule: Q01DX009 (ip), vehicle: saline, higher = longer survival): 101 % of control
T/C [2]: 87 % of control
T/C (endpoint: median survival time, dose: 1.5 mg/kg/injection, schedule: Q01DX009 (ip), vehicle: saline, higher = longer survival): 91 % of control
T/C (endpoint: median survival time, dose: 2.3 mg/kg/injection, schedule: Q01DX009 (ip), vehicle: saline, higher = longer survival): 105 % of control
